This assay relates to YAP/TAZ-TEAD transcription. Description: Reporter gene assay for measuring the inhibition of YAP/TAZ-TEAD transcription (TEAD-responsive element luciferase reporter in Hek293T cells). It counts as cell-based. The settings on record: Homo sapiens, HEK-293T, 24 hours incubation. Put shortly: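 Percent inhibition, scaled between vehicle (0%) and a positive control inhibitor (100%), came from SteadyLite luciferase signal after 24 h compound exposure at 37 °C/5% CO2. Cells: Hek293T transiently carrying a TEAD-responsive luciferase reporter; EC50 derived.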

Some results are limits rather than exact numbers.

For `C=CC(=O)NCc1ccc(-c2ccc(F)cc2)cc1-c1ccn(CC(C)C)n1` [compound 152, N-((4′-fluoro-3-(1-isobutyl-1H-pyrazol-3-yl)-[1,1′-biphenyl]-4-yl)methyl)acrylamide], the EC50 was below 1 µM.

As for `C=CC(=O)NCc1ccc(-c2ccc(F)cc2)cc1-c1ccn(C2COC2)n1` [compound 154, N-((4′-fluoro-3-(1-(oxetan-3-yl)-1H-pyrazol-3-yl)-[1,1′-biphenyl]-4-yl)methyl)acrylamide], the EC50 is below 1 µM.

Consider `C=CC(=O)NCc1ccc(-c2ccc(F)cc2)cc1-c1ccn(CCOC(F)(F)F)n1` [compound 155, N-((4′-fluoro-3-(1-(2-(trifluoromethoxy)ethyl)-1H-pyrazol-3-yl)-[1,1′-biphenyl]-4-yl)methyl)acrylamide], for which the EC50 fell in the range of 1 to 20 µM.

Turning to `C=CC(=O)NCc1ccc(-c2ccc(C(F)(F)F)cc2)cc1-c1ccn(CCOC)n1` [compound 156, N-((3-(1-(2-methoxyethyl)-1H-pyrazol-3-yl)-4′-(trifluoromethyl)-[1,1′-biphenyl]-4-yl)methyl)acrylamide], the EC50 is below 1 µM.

Regarding `C=CC(=O)NCc1ccc(-c2ccc(Cl)cc2)cc1-c1ccn(C2CC2)n1` [compound 158, N-((4′-chloro-3-(1-cyclopropyl-1H-pyrazol-3-yl)-[1,1′-biphenyl]-4-yl)methyl)acrylamide], the concentration for a half-maximal effect (EC50) is below 1 µM.

As for `C=CC(=O)NCc1ccc(-c2ccc(F)cc2)cc1-c1ccn(CC2COC2)n1` [compound 159, N-((4′-fluoro-3-(1-(oxetan-3-ylmethyl)-1H-pyrazol-3-yl)-[1,1′-biphenyl]-4-yl)methyl)acrylamide], the EC50 is below 1 µM.

As to `C=CC(=O)NCc1ccc(-c2ccc(F)cc2)cc1-c1ccn(CC(F)(F)F)n1` [compound 160, N-((4′-fluoro-3-(1-(2,2,2-trifluoroethyl)-1H-pyrazol-3-yl)-[1,1′-biphenyl]-4-yl)methyl)acrylamide], the EC50 was below 1 µM.

For the compound `C=CC(=O)NCc1ccc(-c2ccc(F)cc2)cc1-c1ccnn1C` [compound 163, N-((4′-fluoro-3-(1-methyl-1H-pyrazol-5-yl)-[1,1′-biphenyl]-4-yl)methyl)acrylamide], the EC50 is above 20 µM.

In turn, `C=CC(=O)NCc1ccc(-c2ccc(F)cc2)cc1-c1cccnc1` [compound 164, N-((4′-fluoro-3-(pyridin-3-yl)-[1,1′-biphenyl]-4-yl)methyl)acrylamide] showed a concentration giving a half-maximal response (EC50) below 1 µM.

In turn, `C=CC(=O)NCc1ccc(-c2ccc(C(F)(F)F)cc2)cc1-c1cnn(C2CC2)c1` [compound 168, N-((3-(1-cyclopropyl-1H-pyrazol-4-yl)-4′-(trifluoromethyl)-[1,1′-biphenyl]-4-yl)methyl)acrylamide] yielded a concentration for a half-maximal effect (EC50) below 1 µM.

Compound `C=CC(=O)NCc1ccc(-c2ccc(F)cc2)cc1-c1ccnn1C(F)F` [compound 171, N-((3-(1-(difluoromethyl)-1H-pyrazol-5-yl)-4′-fluoro-[1,1′-biphenyl]-4-yl)methyl)acrylamide] gave an EC50 of 1 to 20 µM.

Regarding `C=CC(=O)NCc1ccc(-c2ccc(C(F)(F)F)cc2)cc1-c1cnn(C(F)F)c1` [compound 173, N-((3-(1-(difluoromethyl)-1H-pyrazol-4-yl)-4′-(trifluoromethyl)-[1,1′-biphenyl]-4-yl)methyl)acrylamide], the concentration giving a half-maximal response (EC50) is below 1 µM.

For the compound `C=CC(=O)NCc1ccc(-c2ccc(F)cc2)cc1-c1ccn(C2(C)CC2)n1` [compound 175, N-((4′-fluoro-3-(1-(1-methylcyclopropyl)-1H-pyrazol-3-yl)-[1,1′-biphenyl]-4-yl)methyl)acrylamide], the 50% effective concentration (EC50) was below 1 µM.

Take `C=CC(=O)NCc1ccc([C@H]2CC[C@H](C(F)(F)F)CC2)cc1-c1ccn(C)n1` [compound 178, trans-N-(2-(1-methyl-1H-pyrazol-3-yl)-4-(4-(trifluoromethyl)cyclohexyl)benzyl)acrylamide]: the half-maximal effective concentration (EC50) is below 1 µM.

`C=CC(=O)NCc1ccc(N2CCC(C(F)(F)F)CC2)cc1-c1ccn(C)n1` [compound 181, N-(2-(1-methyl-1H-pyrazol-3-yl)-4-(4-(trifluoromethyl)piperidin-1-yl)benzyl)acrylamide] had an EC50 below 1 µM.

The record behind these values is US12552772B2, “2-pyrazole anilines and related analogs for inhibiting YAP/TAZ-TEAD” (KATHOLIEKE UNIVERSITEIT LEUVEN, priority 2021, dated 2026).
